How the values were obtained:
[1] = test system: C1B domain derived from PKC; test: Response of DAG-fllip-pm and DAG-fllip-em to phorbol ester (PMA); format: cell-based; conditions: phorbol ester (PMA) added
Procedure: It has been known that C1B domain derived from PKC is selectively bound to DAG. Therefore, this domain was selected as an LBD and the lipid second messenger detecting- and quantifying-probe (hereinafter, referred to as DAG-Fllip) was prepared. Localization domains to the plasma membrane and endomembranes are linked with DAG-fllip to prepare DAG-fllip-pm and DAG-fllip-em. After that, in order to confirm whether the DAG-fllip-pm and the DAG-fllip-em respond to DAG, the DAG-fllip-pm and the DAG-fllip-em were evaluated by using phorbol ester (PMA), which is a substance having a membrane permeability, and specifically bound to C1B domain.

PIP3 = test: CFP/YFP emission ratio time course after PDGF stimulation of probe-expressing CHO-PDGFR cells; format: cell-based, Chinese hamster; conditions: for PIP3 in plasma membranes and endomembranes: stimulation by other peptide ligands instead of PDGF
Procedure: Ovarian cells of Chinese hamster (CHO) were cultured in Ham's F-12 medium supplemented with 10% fetal calf serum (FCS) at 37° C. in 5% CO2. The resulting CHO-PDGFR cells were plated onto glass-bottomed dishes, each of Fllip-pm, Fllip-pmR284C, Fllip-del and Fllip-em expression vectors were transfected with LipofectAMINE2000 reagent (manufactured by Life Technology) and left for 24 hours at 37° C. in 5% CO2.
After serum starvation with serum-free incubating medium, the medium was replaced with a Hank's balanced salt solution. Then, in accordance with a method already reported by the inventors (such as Non-Patent Documents 12 and 13), the cells were imaged at room temperature on a Carl Zeiss Axiovert 135 microscope with a cooled CCD camera, MicroMAX (Roper Scientific lnc, Tucson, Ariz.), controlled by MetaFluor. (Universal Imaging, West Chester, Pa.). The fluorescence images were obtained through 480±15 nm and 535±12.5 nm filters with a 40× oil immersion objective (Carl Zeiss, Jena, Germany). YFP images were detected by a confocal laser scanning microscope LSM 510 (Carl Zeiss).
Response of Fllip-pm to PIP3 produced by physiological stimulation was examined.
Fllip-pm was expressed in CHO-PDGFR cells stably expressing platelet-derived growth factor receptor (PDGFR). PDGF treatment promotes dimerization of PDGFR that results in phosphorylation of multiple tyrosine residues of PDGFR and its activation. PI3K is recruited to these tyrosine phosphorylation sites through its Src-homology 2 (SH2) domain, resulting in its activation (Schlessinger, J. (2000), Cell, 103, 211-225).
The time course of CFP/YFP-emission ratio when PDGF (50 ng/mL) was added to a cell expressing Fllip-pm at plasma membrane are shown in FIG. 6 and FIG. 7.
According to the same method as in Examples 4 and 5, response of Fllip-pmR284C, of which PHD was mutated not to bind to PIP3, was examined.
Fllip-em was expressed in the CHO-PDGFR cells by the same method as in Example 2. After that, the cells were stimulated with PDGF by the same method as in Example 5 and the time course of CFP/YFP emission ratio was measured.

[2] = PDGF 50 ng/mL, Fllip-pm at plasma membrane of CHO-PDGFR cells

Question: How did the “fluorescence intensity ratio (CFP/YFP) of DAG-fllip-em” value [1] turn out when CCCCCCCCCCCCCC(=O)O[C@@H]1[C@@H](C)[C@@]2(O)[C@@H](C=C(CO)C[C@]3(O)C(=O)C(C)=C[C@@H]23)[C@@H]2C(C)(C)[C@]12OC(C)=O [phorbol ester] was run?
Answer: The value was “decreased”.

Question: What about the “fluorescence intensity ratio (CFP/YFP) of DAG-fllip-pm” value [1] of the same compound?
Answer: Its value is “decreased”.

Question: PDGF was tested. Which CFP/YFP emission ratio (PIP3; [2]) did it give?
Answer: The CFP/YFP emission ratio was “decreased immediately”.

Question: And the “time for CFP/YFP emission ratio to reach a plateau” value (PIP3; [2])?
Answer: The value was 300 s.

Question: What about the “extent of PIP3 increase in the endomembranes relative to that in the plasma membrane” value (PIP3; upon PDGF stimulation) of the same compound?
Answer: The value was “twice to three times”.

Question: For “epidermal growth factors: other peptide ligand”, which “PIP3 in plasma membranes and endomembranes” value (PIP3) is on record?
Answer: The value was “induced the PIP3 increase”.

Question: With insulin: other peptide ligand as the compound, how does the “PIP3 in plasma membranes and endomembranes” value (PIP3) read?
Answer: The value was “induced the PIP3 increase”.

From US7507555B2, “Probe for detecting and quantifying lipid second messenger and method of detecting and quantifying lipid second messenger using the same” (Japan Science and Technology Agency, priority 2003, dated 2009)
